Test results published in BigSolDB 2.1.

Conditions: 298 K

Row | Structure (SMILES) | solubility (mole fraction) (in n-hexane) | solubility (mole fraction) (in n-octanol) | solubility (mole fraction) (in water)
1 | Nc1ccc(S(=O)(=O)Nc2ccccc2Cl)c(Cl)c1 | – | 7.4e-05 | 1.19e-07
2 | Nc1ccc(S(=O)(=O)Nc2cccc(Cl)c2Cl)cc1 | 6.05e-06 | 0.000681 | 3.32e-07
3 | CN(C)S(=O)(=O)c1ccc(N)cc1 | 2.9e-06 | 0.000873 | 3.21e-05
4 | CCOc1ccc(NS(=O)(=O)c2ccc([N+](=O)[O-])cc2)cc1 | 3.95e-06 | 0.00125 | 3.41e-07
5 | CCOC(=O)c1ccc(NS(=O)(=O)c2ccccc2)nc1 | – | 0.0006 | 1.24e-06
6 | Cc1cc(N)ccc1S(=O)(=O)Nc1ccccc1Cl | 1.08e-06 | 0.000115 | 1.57e-07
7 | Cc1ccc(NS(=O)(=O)c2ccc([N+](=O)[O-])cc2)nc1 | – | 3.38e-05 | 1.13e-06
8 | Nc1ccc(S(=O)(=O)N(c2ccccc2)c2ccccc2)cc1 | 5.4e-06 | 0.000551 | 4.84e-07
9 | O=[N+]([O-])c1ccc(S(=O)(=O)Nc2nccs2)cc1 | – | – | 4.23e-06
10 | Cc1ccc(NS(=O)(=O)c2ccc(N)cc2)c(Cl)c1 | 2.43e-06 | 0.00158 | 7.65e-07
11 | Nc1ccc(S(=O)(=O)Nc2ccc([N+](=O)[O-])cc2Br)cc1 | – | 0.000308 | 3.01e-07
12 | Cc1ccc(Cl)cc1NS(=O)(=O)c1ccc(N)cc1 | 2.94e-06 | 0.00188 | 1.61e-06
13 | Cc1cc(Cl)ccc1NS(=O)(=O)c1ccc(N)cc1 | – | 0.00489 | 7.72e-07
14 | Nc1ccc(S(=O)(=O)Nc2cc(Cl)c(Cl)cc2Cl)cc1 | 6.32e-06 | 0.00109 | 2.51e-07
15 | CNS(=O)(=O)c1ccc(N)cc1 | – | 0.00486 | 0.00103
16 | Cc1cc(N)ccc1S(=O)(=O)Nc1ccccc1[N+](=O)[O-] | 3.22e-06 | 0.000198 | 5.18e-07
17 | Nc1ccc(S(=O)(=O)Nc2cc(Cl)ccc2Cl)cc1 | 4.69e-06 | 0.000529 | 7.25e-07
18 | CCN(CC)S(=O)(=O)c1ccc(N)cc1 | 2.41e-05 | 0.0108 | 4.27e-05

Further lines, results first:

Row | solubility (mole fraction) (in n-hexane) | solubility (mole fraction) (in n-octanol) | solubility (mole fraction) (in water) | Structure (SMILES)
19 | 2.24e-06 | 0.000233 | 1.32e-06 | COc1ccc(NS(=O)(=O)c2ccc(N)cc2)cc1
20 | 3.16e-06 | 0.0116 | 2.11e-06 | O=[N+]([O-])c1ccc(NS(=O)(=O)c2ccccc2)cc1
21 | – | 0.000552 | 1.53e-07 | Cc1ccc(NS(=O)(=O)c2ccc(N)cc2)cc1Cl
22 | 0.000101 | 0.0335 | 8.49e-06 | O=S(=O)(Nc1ccccc1)c1ccccc1
23 | – | 0.000422 | 2.05e-07 | Nc1ccc(S(=O)(=O)Nc2ccc(Cl)c(Cl)c2)cc1
24 | 7.73e-06 | 0.0036 | 8.69e-07 | O=S(=O)(Nc1ccccc1Cl)c1ccccc1
25 | 4.59e-06 | 0.00356 | 6.71e-07 | Cc1cc(N)ccc1S(=O)(=O)Nc1ccc(Cl)cc1
26 | – | 0.003 | 3.65e-06 | Nc1ccc(S(=O)(=O)Nc2ccc([N+](=O)[O-])cc2)cc1
27 | 6.58e-05 | 0.00282 | 1.17e-05 | O=S(=O)(Nc1ncccc1Cl)c1ccccc1
28 | – | 0.0106 | 1.78e-06 | O=[N+]([O-])c1ccccc1NS(=O)(=O)c1ccccc1
29 | 2.77e-06 | 0.00104 | 5.09e-07 | CCc1ccc(NS(=O)(=O)c2ccc(N)cc2)cc1
30 | – | 0.00248 | 4.72e-07 | Nc1ccc(S(=O)(=O)Nc2ccc(Cl)cc2)c(Cl)c1
31 | – | 0.00163 | 5.44e-07 | Nc1ccc(S(=O)(=O)Nc2ccc(I)cc2)cc1
32 | – | 0.00145 | 1.19e-06 | Nc1ccc(S(=O)(=O)Nc2ccc(Cl)cc2)cc1
33 | 1.37e-06 | 0.0421 | 1.68e-06 | O=S(=O)(Nc1ccc(Cl)cc1)c1ccccc1
34 | 2.63e-05 | 0.00151 | – | O=S(=O)(Nc1cccnc1Cl)c1ccccc1
35 | – | 0.00129 | 5.47e-06 | N#Cc1ccc(NS(=O)(=O)c2ccc(N)cc2)cc1
